Source: patent publication US20130231346A1, “METHODS OF TREATING CANCER” (GLAXOSMITHKLINE INTELLECTUAL PROPERTY (NO.2) LIMITED, priority 2010, published 2013)

How the values were obtained:
Format in all cases: cell-based
Design in all cases: key: −: lack of caspase 3/7 activation after 24 hours of compound treatment; ++: moderate; +++: strong; ++++: very strong
H2122 NSCLC cells = test: Caspase 3/7 activation, H2122; settings: H2122, KRAS^G12c; BRG1 WT, LKB1 MUT, CDKN2A MUT; 24 hours
Protocol: (§1) Inhibition of cell growth and induction of apoptosis were determined by CellTiter-Glo® and caspase 3/7 activation assays after 72 and 24 hours of treatment, respectively.

H1355 NSCLC cells = test: Caspase 3/7 activation, H1355; settings: H1355, KRAS^G13C; BRG1 NULL, LKB1 MUT, CDKN2A WT; 24 hours
Protocol: (§2) A panel of 24 non-small cell lung carcinoma (NSCLC) cell lines harboring RAS mutations was analyzed for genomic alterations, gene expression profiling and protein phosphorylation in MAPK and PI3K pathways. Inhibition of cell growth and induction of apoptosis were determined by CellTiter-Glo® and caspase 3/7 activation assays after 72 and 24 hours of treatment, respectively.

H2030 NSCLC cells = test: Caspase 3/7 activation, H2030; settings: H2030, KRAS^G12c; BRG1 MUT, LKB1 MUT, CDKN2A WT; 24 hours
Protocol: as §1

SW900 NSCLC cells = test: Caspase 3/7 activation, SW900; settings: SW900, KRAS^G12V; BRG1 WT, LKB1 WT, CDKN2A MUT; 24 hours
Protocol: as §1

H23 NSCLC cells = test: Caspase 3/7 activation, H23; settings: H23, KRAS^G12c; BRG1 MUT, LKB1 MUT, CDKN2A WT; 24 hours
Protocol: as §1

A427 NSCLC cells = test: Caspase 3/7 activation, A427; settings: A427, KRAS^G12D; BRG1 MUT, LKB1 MUT, CDKN2A WT; 24 hours
Protocol: as §1

H441 NSCLC cells = test: Caspase 3/7 activation, H441; settings: H441, KRAS^G12V; BRG1 WT, LKB1 WT, CDKN2A WT; 24 hours
Protocol: as §1

H2291 NSCLC cells = test: Caspase 3/7 activation, H2291; settings: H2291, KRAS^G12F; BRG1 WT, LKB1 WT, CDKN2A WT; 24 hours
Protocol: as §1

H1155 NSCLC cells = test: Caspase 3/7 activation, H1155; settings: H1155, KRAS^Q61H; BRG1 WT, LKB1 WT, CDKN2A WT; 24 hours
Protocol: as §2

H157 NSCLC cells = test: Caspase 3/7 activation, H157; settings: H157, KRAS^G12R; BRG1 MUT, LKB1 MUT, CDKN2A WT; 24 hours
Protocol: as §2

H1299 NSCLC cells = test: Caspase 3/7 activation, H1299; settings: H1299, KRAS^Q61H; BRG1 MUT, LKB1 WT, CDKN2A WT; 24 hours
Protocol: as §1

H460 NSCLC cells = test: Caspase 3/7 activation, H460; settings: H460, KRAS^Q61H; BRG1 WT, LKB1 MUT, CDKN2A MUT; 24 hours
Protocol: as §2

A549 NSCLC cells = test: Caspase 3/7 activation, A549; settings: A549, KRAS^G12S; BRG1 MUT, LKB1 MUT, CDKN2A MUT; 24 hours
Protocol: as §1

H2347 NSCLC cells = test: Caspase 3/7 activation, H2347; settings: H2347, KRAS^Q61K; BRG1 WT, LKB1 WT, CDKN2A WT; 24 hours
Protocol: as §1

H358 NSCLC cells = test: Caspase 3/7 activation, H358; settings: H358, KRAS^G12c; BRG1 WT, LKB1 WT, CDKN2A WT; 24 hours
Protocol: as §1

H1792 NSCLC cells = test: Caspase 3/7 activation, H1792; settings: H1792, KRAS^G12c; BRG1 WT, LKB1 WT, CDKN2A WT; 24 hours
Protocol: as §1

H1573 NSCLC cells = test: Caspase 3/7 activation, H1573; settings: H1573, KRAS^G12A; BRG1 MUT, LKB1 WT, CDKN2A WT; 24 hours
Protocol: as §2

H727 NSCLC cells = test: Caspase 3/7 activation, H727; settings: H727, KRAS^G12V; BRG1 WT, LKB1 WT, CDKN2A WT; 24 hours
Protocol: as §1

Row | SMILES | Apoptosis Response (caspase 3/7 activation) (H2122 NSCLC cells) | Apoptosis Response (caspase 3/7 activation) (H1355 NSCLC cells) | Apoptosis Response (caspase 3/7 activation) (H2030 NSCLC cells) | Apoptosis Response (caspase 3/7 activation) (SW900 NSCLC cells) | Apoptosis Response (caspase 3/7 activation) (H23 NSCLC cells) | Apoptosis Response (caspase 3/7 activation) (A427 NSCLC cells) | Apoptosis Response (caspase 3/7 activation) (H441 NSCLC cells) | Apoptosis Response (caspase 3/7 activation) (H2291 NSCLC cells) | Apoptosis Response (caspase 3/7 activation) (H1155 NSCLC cells) | Apoptosis Response (caspase 3/7 activation) (H157 NSCLC cells) | Apoptosis Response (caspase 3/7 activation) (H1299 NSCLC cells) | Apoptosis Response (caspase 3/7 activation) (H460 NSCLC cells) | Apoptosis Response (caspase 3/7 activation) (A549 NSCLC cells) | Apoptosis Response (caspase 3/7 activation) (H2347 NSCLC cells) | Apoptosis Response (caspase 3/7 activation) (H358 NSCLC cells) | Apoptosis Response (caspase 3/7 activation) (H1792 NSCLC cells) | Apoptosis Response (caspase 3/7 activation) (H1573 NSCLC cells) | Apoptosis Response (caspase 3/7 activation) (H727 NSCLC cells)
1 | CC(=O)O[C@@]12CO[C@@H]1C[C@H](O)[C@@]1(C)C(=O)[C@H](O)C3=C(C)[C@@H](OC(=O)[C@H](O)[C@@H](NC(=O)OC(C)(C)C)c4ccccc4)C[C@@](O)([C@@H](OC(=O)c4ccccc4)[C@H]21)C3(C)C [Docataxel, (2R,3S)—N-carboxy-3-phenylisoserine,N-tert-butyl ester, 13-ester with 5β-20-epoxy-1,2α,4,7β,10β,13α-hexahydroxytax-11-en-9-one 4-acetate 2-benzoate, trihydrate] | − | − | ++ | − | +++ | ++ | − | − | − | ++ | − | ++ | − | − | ++ | +++ | ++ | −
2 | CC(=O)Nc1cccc(-n2c(=O)n(C3CC3)c(=O)c3c(Nc4ccc(I)cc4F)n(C)c(=O)c(C)c32)c1 [Compound A, N-{3-[3-cyclopropyl-5-(2-fluoro-4-iodo-phenylamino)-6,8-dimethyl-2,4,7-trioxo-3,4,6,7-tetrahydro-2H-pyrido[4,3-d]pyrimidin-1-yl]phenyl}acetamide] | ++ | − | − | − | − | − | − | ++ | − | − | − | − | − | ++ | − | ++ | − | ++
